The values that follow come from patent US4745124A, “Orally effective anti-hypertensive agents” (priority 1983, dated 1988).

For assay [1], the target named is T1, angiotensin converting enzyme (human urinary ACE) (Homo sapiens, UniProt P12821).
T1 construct: ACE purified from human urine; from tissue; host or cells: human urine (ultrafiltration and Sephacryl S-200, first eluting peak; prepared as in Ryan et al., Tissue and Cell 10, 555 (1978))
The assay can be described thus: ACE activity assay, I50 (Example 216A). The format is biochemical. Conditions: Benzoyl-GlyHisLeu 1×10^-4 M, Hepes pH 8.0, 37° C, in vitro.

For assay [2], the system named is pressor effects of angiotensin I. Briefly: oral effectiveness: blood pressure response to angiotensin I in anesthetized rats. The format is in vivo, rat. Conditions: oral 10 mg, Ex. 225. A digest of the protocol:
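Fasted rats under pentobarbital anesthesia (50-60 mg/kg i.p.), ventilated, with carotid arterial pressure recorded; i.v. angiotensin I (80 ng, 160 ng or 400 ng/kg) or angiotensin II (80 ng) challenges repeated at timed intervals after oral gavage of compound (2-20 mg/kg, 10 mg, 17 or 23 μmol/kg) in aqueous NaHCO3.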

Where [3] appears, read: human urinary ACE, read-out: I50.

Read-outs that look alike come from different tables or passages of the source. No end group written: not given here. *: point of attachment. Bz = O=C(c1ccccc1)*

T1 sequence (P12821 30-1232 limits assumed): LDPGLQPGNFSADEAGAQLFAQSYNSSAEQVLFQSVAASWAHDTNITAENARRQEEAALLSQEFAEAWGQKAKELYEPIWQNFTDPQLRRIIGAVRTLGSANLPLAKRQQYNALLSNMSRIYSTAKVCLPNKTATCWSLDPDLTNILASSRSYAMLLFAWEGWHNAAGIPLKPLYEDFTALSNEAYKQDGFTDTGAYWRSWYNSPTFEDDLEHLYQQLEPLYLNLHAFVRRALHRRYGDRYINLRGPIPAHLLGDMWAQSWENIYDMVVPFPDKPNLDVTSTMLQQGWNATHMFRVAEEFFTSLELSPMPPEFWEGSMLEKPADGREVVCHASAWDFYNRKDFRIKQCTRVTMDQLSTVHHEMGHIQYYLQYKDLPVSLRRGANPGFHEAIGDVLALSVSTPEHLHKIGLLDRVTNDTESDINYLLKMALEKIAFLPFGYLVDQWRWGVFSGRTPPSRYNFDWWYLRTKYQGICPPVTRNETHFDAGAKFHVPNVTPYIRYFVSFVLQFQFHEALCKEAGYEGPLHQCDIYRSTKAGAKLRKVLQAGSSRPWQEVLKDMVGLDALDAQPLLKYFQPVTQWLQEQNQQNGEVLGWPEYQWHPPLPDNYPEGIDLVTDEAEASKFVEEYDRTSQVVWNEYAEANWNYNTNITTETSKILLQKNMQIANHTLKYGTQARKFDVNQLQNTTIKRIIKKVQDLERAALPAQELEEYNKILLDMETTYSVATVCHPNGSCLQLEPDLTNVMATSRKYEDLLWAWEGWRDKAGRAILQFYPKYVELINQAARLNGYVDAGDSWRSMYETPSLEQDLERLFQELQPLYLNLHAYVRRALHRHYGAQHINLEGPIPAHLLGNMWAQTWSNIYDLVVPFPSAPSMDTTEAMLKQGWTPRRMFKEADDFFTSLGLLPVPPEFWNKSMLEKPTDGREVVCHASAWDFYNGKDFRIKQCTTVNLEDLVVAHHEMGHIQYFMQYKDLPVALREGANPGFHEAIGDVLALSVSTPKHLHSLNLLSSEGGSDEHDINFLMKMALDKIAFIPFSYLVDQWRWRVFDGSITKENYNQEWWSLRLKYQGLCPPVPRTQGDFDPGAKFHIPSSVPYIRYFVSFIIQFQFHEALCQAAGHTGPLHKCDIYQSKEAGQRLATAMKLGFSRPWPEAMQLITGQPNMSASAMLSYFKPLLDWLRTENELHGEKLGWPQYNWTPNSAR

`CC(SC(=O)C(Cc1ccccc1)NC(=O)c1ccccc1)C(=O)N1CC=C[C@H]1C(=O)O` (stereo partly drawn) [(B), N-(2-benzoylphenylalanylthiopropanoyl)-L-3,4-dehydroproline]: the IC50 in assay [1] (setting [3]) was 0.003 µM. For the same compound, the “Blood pressure response to angiotensin I (% of control)” value was 100% in assay [2] (3 min); 81% in assay [2] (9 min); 74% in assay [2] (14 min); 74% in assay [2] (24 min); 74% in assay [2] (28 min); 63% in assay [2] (34 min). The “Blood pressure response to angiotensin I (% of control)” value in assay [2] (44 min) worked out at 56%; in assay [2] (54 min) it was 44%; in assay [2] (64 min), 56%; in assay [2] (85 min) it was 37%; in assay [2] (94 min), 44%; in assay [2] (104 min), 74%. Also, the “Blood pressure response to angiotensin I (% of control)” value came out at 56% in assay [2] (114 min) and 100% in assay [2] (146 min).

As to `C[C@H](CSC(=O)[C@@H](Cc1ccccc1)NC(=O)c1ccccc1)C(=O)N1CCC[C@H]1C(=O)O` [Example 197, N-[3-(benzoyl-D-phenylalanylthio)-2-D-methyl-propanoyl]-L-proline], in assay [1] (setting [3]), the IC50 was 0.009 µM.

In assay [1] (I50, human urinary ACE), `N[C@@H](CS)C(=O)O` [L-cysteine] showed an IC50 of 200 µM.

On to `O=C(O)[C@@H]1CCCN1` [L-proline], for which the IC50 in assay [1] (setting [3]) was determined as 1000 µM.

Turning to `C[C@H](CSC(=O)[C@H](Cc1ccccc1)NC(=O)[C@H](CCCCNC(=O)OC(C)(C)C)NC(=O)C1CCCC1)C(=O)N1CCC[C@H]1C(=O)O` [N-alpha-[3-(N-alpha-cyclopentylcarbonyl-N-epsilon-tert-butyloxycarbonyl-L-lysyl-L-phenylalanylthio)-2-D-methylpropanoyl]-L-proline], the IC50 in assay [1] (setting [3]) was found to be 0.025 µM.

On to `O=C(N[C@@H](Cc1ccccc1)C(=O)O)c1ccccc1` [benzoyl-Phe], for which the IC50 in assay [1] (setting [3]) stood at 400 µM.

Turning to `N[C@@H](CCC(=O)N[C@@H](CS)C(=O)NCC(=O)O)C(=O)O` [γ Glu--Cys--Gly (glutathione), γ Glu--Cys--Gly], the IC50 in assay [1] (setting [3]) was found to be 40 µM.

Consider < Glu--Cys--Pro, for which the IC50 in assay [1] (setting [3]) was 4 µM.

Bz-Gly-Cys-Pro: the IC50 in assay [1] (setting [3]) came to 0.5 µM.

Turning to Bz-Phe-Ala-Pro, the IC50 in assay [1] (setting [3]) came to 0.1 µM.

Consider Bz-Phe-Cys-Pro, for which the IC50 in assay [1] (setting [3]) came to 0.6 µM.

Cys--Pro: the IC50 in assay [1] (setting [3]) stood at 11 µM.

As for Phe--Ala--Pro, the IC50 in assay [1] (setting [3]) turned out to be 0.2 µM.

For acetyl-Cys--Pro, the IC50 in assay [1] (setting [3]) is 5 µM.

As for γ Glu--Cys--Pro, the IC50 in assay [1] (setting [3]) amounted to 11 µM.
